Earlier results, collected in article PMC12281572.
Several values for one entry are separate records, joined by “and”; a condition that tells them apart may be missing. Equal entries are not always repeated.

Experiment: FTIR, 4-fluorophenol as donor (the pK_BHX database, per the paper)
Settings: CCl4; 25 C

Compound | pK_BHX (log10 Kf of the 1:1 H-bond complex with 4-fluorophenol, by FTIR)
NCc1cccc([N+](=O)[O-])c1 | 1.26 log units
CC(C)c1ccccc1 | -0.34 log units
CC(=O)c1ccccc1Cl | 0.9 log units
O=c1occo1 | 0.69 log units
CCN(CC)C(=O)Cl | 1.08 log units
C=CCNCC=C | 1.7 log units
Fc1cccc(C2CCCN2)c1 (centres unmarked) | 1.65 log units
CCOC(=O)C12CC3CC(CC(C3)C1)C2 | 1.06 log units
O=CN1CCOCC1 | 1.93 log units
CCCCCCl | -0.38 log units
OC1CCCCC1 | 1.14 log units
C#CCCCC | -0.22 log units
S=C1CCCCCN1 | 1.6 log units
O=S(c1ccccc1)c1ccccc1 | 2.04 log units
c1ccc2cnncc2c1 | 1.97 log units
N#Cc1c(F)c(F)c(F)c(F)c1F | 0.01 log units
CCCCSC | 0.17 log units
Cc1cccc(CN)c1 | 1.97 log units
C1C2CC3CC1CC(C2)C31OC12C1CC3CC(C1)CC2C3 (centres unmarked) | 1.44 log units
CCCN=C(NC)NC#N | 2.09 log units
CCCCN | 2.19 log units
CN(C)C=NC(C)(C)C | 2.41 log units
C=CCNC | 2.0 log units
CN=C(c1ccc(Br)cc1)N(C)C | 2.19 log units

Compound | pK_BHX (log10 Kf of the 1:1 H-bond complex with 4-fluorophenol, by FTIR)
CC(=O)c1cccc(C(F)(F)F)c1 | 0.72 log units
COc1cc(C#N)cc(OC)c1 | 0.78 log units
N#CN1CCCCC1 | 1.58 log units
CCN(C#N)CC | 1.63 log units
NCc1cccc(C(F)(F)F)c1 | 1.43 log units
Cc1cnc(C)cn1 | 1.29 log units
Cc1cccc(NC(=Nc2ccccc2)c2ccccc2)c1 | 1.4 log units
C1C2CC3CC1CC(C2)C31OOC12C1CC3CC(C1)CC2C3 (centres unmarked) | 0.63 log units
CCCCCCCCO | 1.04 log units
CNCc1ccccc1 | 1.82 log units
CC(C)S | -0.1 log units
c1ccc(-c2ccnc3c2ccc2c(-c4ccccc4)ccnc23)cc1 | 3.26 log units
c1cnc2c(c1)ccc1cccnc12 | 3.1 log units
CC(C)c1ccccn1 | 1.76 log units
CC(C)SC(C)C | 0.3 log units
C1CCCNCC1 | 2.24 log units
C1COCCOCCOCCOCCO1 | 1.12 log units
Cc1cccc(C)c1[N+](=O)[O-] | 0.29 log units
N#CN1CCOCC1 | 1.34 log units
CCN1C(=O)C=CC1=O | 0.68 log units
CC1COC(=O)O1 (centres unmarked) | 1.22 log units
CC(C)N(C#N)C(C)C | 1.74 log units
CN(C)CCCn1c2ccccc2c2ccccc21 | 1.88 log units
Cc1ccccc1C#N | 0.83 log units

Compound | pK_BHX (log10 Kf of the 1:1 H-bond complex with 4-fluorophenol, by FTIR)
CC1=NCCC1 | 2.59 log units
CCCSC | 0.16 log units
OC12CC3CC(CC(C3)C1)C2 | 1.27 log units
C1=CCCCC1 | -0.82 log units
CC(=Nc1ccccc1)Nc1ccccc1 | 1.66 log units
CC(=Nc1ccc(Br)cc1)Nc1ccc(C)cc1 | 1.58 log units
Cc1cc(C)c(C)c(C)c1C | -0.07 log units
CCOC(=O)C=CN(C)C | 2.09 log units
OCC(F)(F)F | -0.28 log units
COC(=O)N(c1ccccc1)c1ccccc1 | 1.41 log units
CN(C)C=NC1CC1 | 2.36 log units
Clc1ccc(N=C(Nc2ccccc2)c2ccccc2)cc1 | 1.13 log units
Cc1ccc(N=CNc2ccc(C)cc2)cc1 | 2.22 log units
c1ccc(Sc2ccccc2)cc1 | -0.51 log units and -0.93 log units
CC(=Nc1ccc(C)cc1)N(C)c1ccc(C)cc1 | 1.82 log units
CN1CCc2ccccc2C1 | 1.8 log units
CC(=Nc1ccc(Cl)cc1)Nc1ccc(Cl)cc1 | 1.07 log units
NCc1ccccc1 | 1.84 log units
O=C1CCC1 | 1.0 log units
O=C1CCCCCO1 | 1.63 log units
CCN(CC)c1ccc(C(C)=O)cc1 | 1.82 log units
COC(C(F)(F)F)C(F)(F)F | -0.41 log units
CCCCS(=O)CCCC | 2.65 log units
